Data as given in ChEMBL document CHEMBL4138123, “Design, synthesis and biological evaluation of novel pyrazolochalcones as potential modulators of PI3K/Akt/mTOR pathway and inducers of apoptosis in breast cancer cells” (Eur J Med Chem, 2017).

Experiments:
[1] = test system: HCC 2998; test: Cytotoxicity against human HCC2998 cells assessed as cell growth at 100 uM after 48 hrs by sulforhodamine B assay relative to control; assay type: functional; conditions: HCC 2998, 48 h, read-out: Activity
[2] = test system: UO-31; test: Cytotoxicity against human UO31 cells assessed as cell growth at 0.01 uM after 48 hrs by sulforhodamine B assay relative to control; assay type: functional; conditions: UO-31, 48 h, read-out: Activity
[3] = test system: SF-268; test: Cytotoxicity against human SF268 cells assessed as cell growth at 0.1 uM after 48 hrs by sulforhodamine B assay relative to control; assay type: functional; conditions: SF-268, 48 h, read-out: Activity
[4] = test system: HOP-62; test: Cytotoxicity against human HOP62 cells assessed as cell growth at 1 uM after 48 hrs by sulforhodamine B assay relative to control; assay type: functional; conditions: HOP-62, 48 h, read-out: Activity
[5] = test system: 786-0; test: Cytotoxicity against human 786-0 cells assessed as cell growth at 10 uM after 48 hrs by sulforhodamine B assay relative to control; assay type: functional; conditions: 786-0, 48 h, read-out: Activity
[6] = test system: K562; test: Cytotoxicity against human K562 cells assessed as cell growth at 1 uM after 48 hrs by sulforhodamine B assay relative to control; assay type: functional; conditions: K562, 48 h, read-out: Activity
[7] = test system: NCI-H23; test: Cytotoxicity against human NCI-H23 cells assessed as cell growth at 100 uM after 48 hrs by sulforhodamine B assay relative to control; assay type: functional; conditions: NCI-H23, 48 h, read-out: Activity
[8] = test system: HCC 2998; test: Cytotoxicity against human HCC2998 cells assessed as cell growth at 0.01 uM after 48 hrs by sulforhodamine B assay relative to control; assay type: functional; conditions: HCC 2998, 48 h, read-out: Activity
[9] = test system: SF-539; test: Cytotoxicity against human SF539 cells assessed as cell growth at 100 uM after 48 hrs by sulforhodamine B assay relative to control; assay type: functional; conditions: SF-539, 48 h, read-out: Activity
[10] = test system: HCT-15; test: Cytotoxicity against human HCT15 cells assessed as cell growth at 100 uM after 48 hrs by sulforhodamine B assay relative to control; assay type: functional; conditions: HCT-15, 48 h, read-out: Activity
[11] = test system: OVCAR-8; test: Cytotoxicity against human OVCAR8 cells assessed as growth inhibition after 48 hrs by sulforhodamine B assay; assay type: functional; conditions: OVCAR-8, 48 h
[12] = test system: T47D; test: Cytotoxicity against human T47D cells assessed as cell growth at 1 uM after 48 hrs by sulforhodamine B assay relative to control; assay type: functional; conditions: read-out: Activity
[13] = test system: OVCAR-3; test: Cytotoxicity against human OVCAR3 cells assessed as cell growth at 0.1 uM after 48 hrs by sulforhodamine B assay relative to control; assay type: functional; conditions: OVCAR-3, 48 h, read-out: Activity
[14] = test system: TK-10; test: Cytotoxicity against human TK10 cells assessed as cell growth at 100 uM after 48 hrs by sulforhodamine B assay relative to control; assay type: functional; conditions: TK-10, 48 h, read-out: Activity
[15] = test system: SK-MEL-5; test: Cytotoxicity against human SK-MEL-5 cells assessed as cell growth at 0.01 uM after 48 hrs by sulforhodamine B assay relative to control; assay type: functional; conditions: SK-MEL-5, 48 h, read-out: Activity
[16] = test system: U-251; test: Cytotoxicity against human U251 cells assessed as cell growth at 1 uM after 48 hrs by sulforhodamine B assay relative to control; assay type: functional; conditions: U-251, 48 h, read-out: Activity
[17] = test system: SK-MEL-5; test: Cytotoxicity against human SK-MEL-5 cells assessed as cell growth at 100 uM after 48 hrs by sulforhodamine B assay relative to control; assay type: functional; conditions: SK-MEL-5, 48 h, read-out: Activity
[18] = test system: SN12C; test: Cytotoxicity against human SN12C cells assessed as cell growth at 100 uM after 48 hrs by sulforhodamine B assay relative to control; assay type: functional; conditions: read-out: Activity
[19] = test system: NCI-H322M; test: Cytotoxicity against human NCI-H322M cells assessed as cell growth at 10 uM after 48 hrs by sulforhodamine B assay relative to control; assay type: functional; conditions: read-out: Activity
[20] = test system: ACHN; test: Cytotoxicity against human ACHN cells assessed as growth inhibition after 48 hrs by sulforhodamine B assay; assay type: functional
[21] = test system: MDA-MB-468; test: Cytotoxicity against human MDA-MB-468 cells assessed as growth inhibition after 48 hrs by sulforhodamine B assay; assay type: functional; conditions: MDA-MB-468, 48 h
[22] = test system: NCI-H522; test: Cytotoxicity against human NCI-H522 cells assessed as growth inhibition after 48 hrs by sulforhodamine B assay; assay type: functional; conditions: NCI-H522, 48 h
[23] = test system: HCT-116; test: Cytotoxicity against human HCT116 cells assessed as cell growth at 0.1 uM after 48 hrs by sulforhodamine B assay relative to control; assay type: functional; conditions: HCT-116, 48 h, read-out: Activity
[24] = test system: MDA-MB-231; test: Cytotoxicity against human MDA-MB-231 cells assessed as cell growth at 1 uM after 48 hrs by sulforhodamine B assay relative to control; assay type: functional; conditions: MDA-MB-231, 48 h, read-out: Activity
[25] = test system: BT-549; test: Cytotoxicity against human BT549 cells assessed as cell growth at 1 uM after 48 hrs by sulforhodamine B assay relative to control; assay type: functional; conditions: BT-549, 48 h, read-out: Activity
[26] = test system: Malme-3M; test: Cytotoxicity against human MALME-3M cells assessed as growth inhibition after 48 hrs by sulforhodamine B assay; assay type: functional
[27] = test system: M14; test: Cytotoxicity against human M14 cells assessed as cell growth at 0.01 uM after 48 hrs by sulforhodamine B assay relative to control; assay type: functional; conditions: M14, 48 h, read-out: Activity
[28] = test system: MOLT-4; test: Cytotoxicity against human MOLT4 cells assessed as cell growth at 0.1 uM after 48 hrs by sulforhodamine B assay relative to control; assay type: functional; conditions: MOLT-4, 48 h, read-out: Activity
[29] = test system: MDA-MB-231; test: Cytotoxicity against human MDA-MB-231 cells assessed as growth inhibition after 48 hrs by MTT assay; assay type: functional, cell-based; conditions: MDA-MB-231, 48 h
[30] = test system: UACC-257; test: Cytotoxicity against human UACC257 cells assessed as cell growth at 100 uM after 48 hrs by sulforhodamine B assay relative to control; assay type: functional; conditions: UACC-257, 48 h, read-out: Activity
[31] = test system: UACC-257; test: Cytotoxicity against human UACC257 cells assessed as cell growth at 10 uM after 48 hrs by sulforhodamine B assay relative to control; assay type: functional; conditions: UACC-257, 48 h, read-out: Activity
[32] = test system: MCF7; test: Cytotoxicity against human MCF7 cells assessed as cell growth at 1 uM after 48 hrs by sulforhodamine B assay relative to control; assay type: functional; conditions: MCF7, 48 h, read-out: Activity
[33] = test system: COLO 205; test: Cytotoxicity against human COLO205 cells assessed as cell growth at 1 uM after 48 hrs by sulforhodamine B assay relative to control; assay type: functional; conditions: COLO 205, 48 h, read-out: Activity
[34] = test system: ACHN; test: Cytotoxicity against human ACHN cells assessed as cell growth at 1 uM after 48 hrs by sulforhodamine B assay relative to control; assay type: functional; conditions: read-out: Activity
[35] = test system: DU-145; test: Cytotoxicity against human DU145 cells assessed as cell growth at 0.01 uM after 48 hrs by sulforhodamine B assay relative to control; assay type: functional; conditions: DU-145, 48 h, read-out: Activity

COc1cc(-c2cc(/C=C/C(=O)c3ccc(F)c(F)c3)[nH]n2)cc(OC)c1OC
growth at 100 µM [1]: -11% | growth at 0.01 µM [2]: 90% | growth at 0.1 µM [3]: 94% | growth at 1 µM [4]: 94% | growth at 10 µM [5]: 11% | growth at 1 µM [6]: 102% | growth at 100 µM [7]: -27% | growth at 0.01 µM [8]: 83% | growth at 100 µM [9]: -63% | growth at 100 µM [10]: 2% | LC50 [11]: > 100 µM | TGI [11]: 17.3 µM | growth at 1 µM [12]: 76% | growth at 0.1 µM [13]: 104% | growth at 100 µM [14]: -37% | growth at 0.01 µM [15]: 98% | growth at 1 µM [16]: 87% | growth at 100 µM [17]: -88% | growth at 100 µM [18]: -22% | growth at 10 µM [19]: 18% | LC50 [20]: > 100 µM | TGI [20]: > 100 µM | GI50 [21]: 2.22 µM | LC50 [21]: > 100 µM | TGI [21]: 9.47 µM | LC50 [22]: 65.2 µM | TGI [22]: 4.48 µM | growth at 0.1 µM [23]: 102% | growth at 1 µM [24]: 74% | growth at 1 µM [25]: 92% | LC50 [26]: > 100 µM | TGI [26]: 9.4 µM | growth at 0.01 µM [27]: 94% | growth at 0.1 µM [28]: 106% | IC50 [29]: 1.5 µM | growth at 100 µM [30]: -37% | growth at 10 µM [31]: -18% | growth at 1 µM [32]: 99% | growth at 1 µM [33]: 92% | growth at 1 µM [34]: 100%

COc1ccc(C(=O)/C=C/c2cc(-c3ccc4c(c3)OCO4)n[nH]2)cc1OC
growth at 100 µM [1]: -86% | growth at 0.01 µM [2]: 86% | growth at 0.1 µM [3]: 94% | growth at 1 µM [4]: 87% | growth at 10 µM [5]: 5% | growth at 1 µM [6]: 80% | growth at 100 µM [7]: -67% | growth at 0.01 µM [8]: 98% | growth at 100 µM [9]: -83% | growth at 100 µM [10]: 2% | LC50 [11]: 40.2 µM | TGI [11]: 5.82 µM | growth at 1 µM [12]: 79% | growth at 0.01 µM [35]: 101% | growth at 0.1 µM [13]: 104% | growth at 100 µM [14]: -58% | growth at 0.01 µM [15]: 96% | growth at 1 µM [16]: 69% | growth at 100 µM [17]: -95% | growth at 100 µM [18]: -73% | growth at 10 µM [19]: -15% | LC50 [20]: > 100 µM | TGI [20]: 56.5 µM | GI50 [21]: 1.86 µM | LC50 [21]: 13.5 µM | TGI [21]: 4.52 µM | LC50 [22]: 12.7 µM | TGI [22]: 4.44 µM | growth at 0.1 µM [23]: 95% | growth at 1 µM [24]: 90% | growth at 1 µM [25]: 95% | LC50 [26]: 61.8 µM | TGI [26]: 22.8 µM | growth at 0.01 µM [27]: 98% | growth at 0.1 µM [28]: 97% | IC50 [29]: 1.5 µM | growth at 100 µM [30]: -81% | growth at 10 µM [31]: 42% | growth at 1 µM [32]: 88% | growth at 1 µM [33]: 101% | growth at 1 µM [34]: 94%

COc1cc(-c2cc(/C=C/C(=O)c3ccc(N)cc3)[nH]n2)cc(OC)c1OC
growth at 100 µM [1]: -91% | growth at 0.01 µM [2]: 91% | growth at 0.1 µM [3]: 106% | growth at 1 µM [4]: 86% | growth at 10 µM [5]: -19% | growth at 1 µM [6]: 43% | growth at 100 µM [7]: -55% | growth at 0.01 µM [8]: 108% | growth at 100 µM [9]: -99% | growth at 100 µM [10]: -17% | GI50 [11]: 2.39 µM | LC50 [11]: 34.9 µM | TGI [11]: 9.76 µM | growth at 1 µM [12]: 66% | growth at 0.01 µM [35]: 107% | growth at 0.1 µM [13]: 110% | growth at 100 µM [14]: -81% | growth at 0.01 µM [15]: 95% | growth at 1 µM [16]: 76% | growth at 100 µM [17]: -94% | growth at 100 µM [18]: -86% | growth at 10 µM [19]: -32% | GI50 [20]: 1.61 µM | LC50 [20]: 8.4 µM | TGI [20]: 3.67 µM | GI50 [21]: 1.01 µM | LC50 [21]: 8.42 µM | TGI [21]: 2.91 µM | GI50 [22]: 1.62 µM | LC50 [22]: 9.81 µM | TGI [22]: 3.99 µM | growth at 0.1 µM [23]: 97% | growth at 1 µM [24]: 70% | growth at 1 µM [25]: 73% | GI50 [26]: 2.05 µM | LC50 [26]: 14.4 µM | TGI [26]: 4.71 µM | growth at 0.01 µM [27]: 94% | growth at 0.1 µM [28]: 102% | IC50 [29]: 2 µM | growth at 100 µM [30]: -93% | growth at 10 µM [31]: -59% | growth at 1 µM [32]: 66% | growth at 1 µM [33]: 92% | growth at 1 µM [34]: 79%
